Patent US12252492B2, “Substituted fused pyrrolo-diazepinones and uses thereof” (Northwestern University, priority 2018, dated 2025)

system: A549/ATCC; assay: NCI60 one-dose screen, A549; format: cell-based, human; conditions: A549 cells; single concentration of 10 μM; NCI60 panel
Description: Anti-cancer activity screening of all compounds was performed by the NCI Developmental Therapeutics Program (DTP) through their NCI60 screening initiative. Assay details can be found at the website dtp.cancer.gov/discovery_development/nci-60/methodology.htm. Information from this website is reproduced here for convenience.
As of early 2007 all compounds submitted to the NCI 60 Cell screen are tested initially at a single high dose (10^-5 M) in the full NCI 60 cell panel. Only compounds which satisfy pre-determined threshold inhibition criteria in a minimum number of cell lines will progress to the full 5-dose assay. The threshold inhibition criteria for progression to the 5-dose screen was selected to efficiently capture compounds with anti-proliferative activity based on careful analysis of historical DTP screening data. The threshold criteria may be updated as additional data becomes available.
The One-dose data will be reported as a mean graph of the percent growth of treated cells and will be similar in appearance to mean graphs from the 5-dose assay. The number reported for the One-dose assay is growth relative to the no-drug control, and relative to the time zero number of cells. This allows detection of both growth inhibition (values between 0 and 100) and lethality (values less than 0). This is the same as for the 5-dose assay, described below. For example, a value of 100 means no growth inhibition. A value of 40 would mean 60% growth inhibition. A value of 0 means no net growth over the course of the experiment. A value of −40 would mean 40% lethality. A value of −100 means all cells are dead. Information from the One-dose mean graph is available for COMPARE analysis.
The human tumor cell lines of the cancer screening panel are grown in RPMI 1640 medium containing 5% fetal bovine serum and 2 mM L-glutamine. For a typical screening experiment, cells are inoculated into 96 well microtiter plates in 100 μL at plating densities ranging from 5,000 to 40,000 cells/well depending on the doubling time of individual cell lines. After cell inoculation, the microtiter plates are incubated at 37° C., 5% CO2, 95% air and 100% relative humidity for 24 h prior to addition of experimental drugs.
After 24 h, two plates of each cell line are fixed in situ with TCA, to represent a measurement of the cell population for each cell line at the time of drug addition (Tz). Experimental drugs are solubilized in dimethyl sulfoxide at 400-fold the desired final maximum test concentration and stored frozen prior to use. At the time of drug addition, an aliquot of frozen concentrate is thawed and diluted to twice the desired final maximum test concentration with complete medium containing 50 μg/ml gentamicin. Additional four, 10-fold or ½ log serial dilutions are made to provide a total of five drug concentrations plus control. Aliquots of 100 μl of these different drug dilutions are added to the appropriate microtiter wells already containing 100 μl of medium, resulting in the required final drug concentrations.
Following drug addition, the plates are incubated for an additional 48 h at 37° C., 5% CO2, 95% air, and 100% relative humidity. For adherent cells, the assay is terminated by the addition of cold TCA. Cells are fixed in situ by the gentle addition of 50 μl of cold 50% (w/v) TCA (final concentration, 10% TCA) and incubated for 60 minutes at 4° C. The supernatant is discarded, and the plates are washed five times with tap water and air dried. Sulforhodamine B (SRB) solution (100 μl) at 0.4% (w/v) in 1% acetic acid is added to each well, and plates are incubated for 10 minutes at room temperature. After staining, unbound dye is removed by washing five times with 1% acetic acid and the plates are air dried. Bound stain is subsequently solubilized with 10 mM trizma base, and the absorbance is read on an automated plate reader at a wavelength of 515 nm. […]

| SMILES | reduction of cell growth of A549 non-small cell lung cancer cells [%] |
| --- | --- |
| CC(C)C1C2=C(NCCN1C(=O)C1CCCC1)C(C)(C)N(Cc1ccccc1)C2=O (stereo not shown) [Compound 8c] | 24 |
| CC(C)C1C2=C(NCCN1C(=O)c1ccncc1)C(C)(C)N(Cc1ccccc1)C2=O (stereo not shown) [Compound 8e] | < 5 |
| CC(C)C1C2=C(NCCN1C(=O)c1cccnc1)C(C)(C)N(Cc1ccccc1)C2=O (stereo not shown) [Compound 8f] | 32 |
| CC1(C)C2=C(C(=O)N1Cc1ccccc1)C(c1ccco1)N(C(=O)C1CCC1)CCN2 (stereo not shown) [Compound 8m, 7-benzyl-4-(cyclobutanecarbonyl)-5-(furan-2-yl)-8,8-dimethyl-2,3,4,5,7,8-hexahydropyrrolo[3,4-e][1,4]diazepin-6(1H)-one] | 24 |
